Source: US20240317724A1, “3,4-METHYLENEDIOXYMETHAMPHETAMINE AND RELATED PS[…] USES THEREOF” (Terran Biosciences Inc., priority 2021, published 2024)

Test: Single oral (PO) dose pharmacokinetics study in rats; plasma concentration of MDMA (and prodrug) by LC-MS/MS
Conditions: male SD rats
[1] = 0.50 h after oral dosing of prodrug 10 mg/Kg
[2] = 1.00 h after oral dosing of prodrug 10 mg/Kg
[3] = 2.00 h after oral dosing of prodrug 10 mg/Kg
[4] = 4.00 h after oral dosing of prodrug 10 mg/Kg
[5] = 7.00 h after oral dosing of prodrug 10 mg/Kg
[6] = 24.0 h after oral dosing of prodrug 10 mg/Kg

Row | SMILES | Mean plasma concentration of metabolite MDMA [1] | Mean plasma concentration of metabolite MDMA [2] | Mean plasma concentration of metabolite MDMA [3] | Mean plasma concentration of metabolite MDMA [4] | Mean plasma concentration of metabolite MDMA [5] | Mean plasma concentration of metabolite MDMA [6] | Tlast of MDMA prodrug (oral dosing of prodrug 10 mg/Kg, analyte prodrug, mean)
1 | CC(C)[C@H](N)C(=O)N(C)C(C)Cc1ccc2c(c1)OCO2 (stereo partly drawn) [Valine prodrug of MDMA, (2S)-2-amino-N-[2-(1,3-benzodioxol-5-yl)-1-methyl-ethyl]-N,3-dimethyl-butanamide] | BLQ (BLQ: Below Lower Limit of Quantification (0.5 ng/mL)) | BLQ (BLQ: Below Lower Limit of Quantification (0.5 ng/mL)) | BLQ (BLQ: Below Lower Limit of Quantification (0.5 ng/mL)) | BLQ (BLQ: Below Lower Limit of Quantification (0.5 ng/mL)) | BLQ (BLQ: Below Lower Limit of Quantification (0.5 ng/mL)) | BLQ (BLQ: Below Lower Limit of Quantification (0.5 ng/mL)) | –
2 | CCCOC(=O)N(C)C(C)Cc1ccc2c(c1)OCO2 (stereo not shown) [Propyl carbamate prodrug of MDMA, propyl N-[2-(1,3-benzodioxol-5-yl)-1-methyl-ethyl]-N-methyl-carbamate] | BLQ (BLQ: Below Lower Limit of Quantification (0.5 ng/mL)) | BLQ (BLQ: Below Lower Limit of Quantification (0.5 ng/mL)) | BLQ (BLQ: Below Lower Limit of Quantification (0.5 ng/mL)) | BLQ (BLQ: Below Lower Limit of Quantification (0.5 ng/mL)) | BLQ (BLQ: Below Lower Limit of Quantification (0.5 ng/mL)) | BLQ (BLQ: Below Lower Limit of Quantification (0.5 ng/mL)) | –
3 | CC(Cc1ccc2c(c1)OCO2)N(C)C(=O)[C@@H](N)CCCCN (stereo partly drawn) [Lysine prodrug of MDMA, (2S)-2,6-diamino-N-[2-(1,3-benzodioxol-5-yl)-1-methyl-ethyl]-N-methyl-hexanamide] | BLQ (BLQ: Below Lower Limit of Quantification (0.5 ng/mL)) | BLQ (BLQ: Below Lower Limit of Quantification (0.5 ng/mL)) | BLQ (BLQ: Below Lower Limit of Quantification (0.5 ng/mL)) | BLQ (BLQ: Below Lower Limit of Quantification (0.5 ng/mL)) | BLQ (BLQ: Below Lower Limit of Quantification (0.5 ng/mL)) | BLQ (BLQ: Below Lower Limit of Quantification (0.5 ng/mL)) | 24.0 h
4 | CC(Cc1ccc2c(c1)OCO2)N(C)C(=O)C1(C)CCOCC1 (stereo not shown) [N-[2-(2H-1,3-Benzodioxol-5-yl)-1-methylethyl]-N-methyl-4-methyltetrahydro-2H-pyran-4-carboxamide] | BLQ (BLQ: Below Lower Limit of Quantification (0.5 ng/mL)) | BLQ (BLQ: Below Lower Limit of Quantification (0.5 ng/mL)) | BLQ (BLQ: Below Lower Limit of Quantification (0.5 ng/mL)) | BLQ (BLQ: Below Lower Limit of Quantification (0.5 ng/mL)) | BLQ (BLQ: Below Lower Limit of Quantification (0.5 ng/mL)) | BLQ (BLQ: Below Lower Limit of Quantification (0.5 ng/mL)) | –
5 | CC(=O)N(C)C(C)Cc1ccc2c(c1)OCO2 (stereo not shown) [Methyl amide (acetyl) prodrug of MDMA, N-[2-(2H-1,3-Benzodioxol-5-yl)-1-methyl-ethyl]-N-methylacetamide] | BLQ (BLQ: Below Lower Limit of Quantification (0.5 ng/mL)) | BLQ (BLQ: Below Lower Limit of Quantification (0.5 ng/mL)) | BLQ (BLQ: Below Lower Limit of Quantification (0.5 ng/mL)) | BLQ (BLQ: Below Lower Limit of Quantification (0.5 ng/mL)) | BLQ (BLQ: Below Lower Limit of Quantification (0.5 ng/mL)) | BLQ (BLQ: Below Lower Limit of Quantification (0.5 ng/mL)) | –
